Reference: patent publication US5843889A, “Glycopeptide antibiotic derivatives” (Eli Lilly and Company, priority 1997, dated 1998)
Values after ≈ are worked out from the molar mass of the structure shown.

Key:
Assay in all cases: MIC, standard broth micro-dilution assay
Type in all cases: cell-based
[1] = system: Entercoccus gallinarum 245
Method: (§1) The formula I compounds have in vitro and in vivo activity against Gram-positive pathogenic bacteria. The MIC's were determined using a standard broth micro-dilution assay.

Entercoccus faecalis 276 = system: Entercoccus faecalis 276
Method: as §1

[2] = system: Entercoccus faecalis 2041
Method: as §1

MIC [1]	MIC (Entercoccus faecalis 276)	MIC [2]	SMILES
≤ 0.06 µg/mL	≤ 0.06 µg/mL	≤ 0.06 µg/mL	CNC(CC(C)C)C(=O)NC1C(=O)NC(CC(N)=O)C(=O)NC2C(=O)NC3C(=O)NC(C(=O)NC(C(=O)O)c4cc(O)cc(O)c4-c4cc3ccc4O)C(OC3CC(C)(N)C(O)C(C)O3)c3ccc(c(Cl)c3)Oc3cc2cc(c3OC2OC(CO)C(O)C(O)C2OC2CC(C)(NCc3ccc(Oc4ccccc4Cl)c([N+](=O)[O-])c3)C(O)C(C)O2)Oc2ccc(cc2Cl)C1O (stereo not drawn) [Compound 88, 4-[2-chlorophenoxy]-3-nitrobenzyl]
0.5 µg/mL (≈ 0.278 µM)	0.5 µg/mL (≈ 0.278 µM)	0.25 µg/mL (≈ 0.139 µM)	CNC(CC(C)C)C(=O)NC1C(=O)NC(CC(N)=O)C(=O)NC2C(=O)NC3C(=O)NC(C(=O)NC(C(=O)O)c4cc(O)cc(O)c4-c4cc3ccc4O)C(OC3CC(C)(N)C(O)C(C)O3)c3ccc(c(Cl)c3)Oc3cc2cc(c3OC2OC(CO)C(O)C(O)C2OC2CC(C)(NCc3c4ccccc4c(C)c4ccccc34)C(O)C(C)O2)Oc2ccc(cc2Cl)C1O (stereo not drawn) [Compound 17, 9-[10-methyl]anthranylmethyl]
4 µg/mL (≈ 2.21 µM)	≤ 0.06 µg/mL	≤ 0.06 µg/mL	CNC(CC(C)C)C(=O)NC1C(=O)NC(CC(N)=O)C(=O)NC2C(=O)NC3C(=O)NC(C(=O)NC(C(=O)O)c4cc(O)cc(O)c4-c4cc3ccc4O)C(OC3CC(C)(N)C(O)C(C)O3)c3ccc(c(Cl)c3)Oc3cc2cc(c3OC2OC(CO)C(O)C(O)C2OC2CC(C)(NCc3ccc(OCCC4CCCCC4)cc3)C(O)C(C)O2)Oc2ccc(cc2Cl)C1O (stereo not drawn) [Compound 127, 4-[cyclohexylethoxy]benzyl]
1 µg/mL (≈ 0.561 µM)	0.25 µg/mL (≈ 0.14 µM)	≤ 0.06 µg/mL	CNC(CC(C)C)C(=O)NC1C(=O)NC(CC(N)=O)C(=O)NC2C(=O)NC3C(=O)NC(C(=O)NC(C(=O)O)c4cc(O)cc(O)c4-c4cc3ccc4O)C(OC3CC(C)(N)C(O)C(C)O3)c3ccc(c(Cl)c3)Oc3cc2cc(c3OC2OC(CO)C(O)C(O)C2OC2CC(C)(NCCCCCCCCBr)C(O)C(C)O2)Oc2ccc(cc2Cl)C1O (stereo not drawn) [Compound 198, 8-bromooctyl]
0.25 µg/mL (≈ 0.148 µM)	0.25 µg/mL (≈ 0.148 µM)	≤ 0.06 µg/mL	CNC(CC(C)C)C(=O)NC1C(=O)NC(CC(N)=O)C(=O)NC2C(=O)NC3C(=O)NC(C(=O)NC(C(=O)O)c4cc(O)cc(O)c4-c4cc3ccc4O)C(OC3CC(C)(N)C(O)C(C)O3)c3ccc(c(Cl)c3)Oc3cc2cc(c3OC2OC(CO)C(O)C(O)C2OC2CC(C)(NCc3cccnc3)C(O)C(C)O2)Oc2ccc(cc2Cl)C1O (stereo not drawn) [Compound 24, 3-pyridylmethyl]
2 µg/mL (≈ 1.09 µM)	≤ 0.06 µg/mL	≤ 0.06 µg/mL	CNC(CC(C)C)C(=O)NC1C(=O)NC(CC(N)=O)C(=O)NC2C(=O)NC3C(=O)NC(C(=O)NC(C(=O)O)c4cc(O)cc(O)c4-c4cc3ccc4O)C(OC3CC(C)(N)C(O)C(C)O3)c3ccc(c(Cl)c3)Oc3cc2cc(c3OC2OC(CO)C(O)C(O)C2OC2CC(C)(NCc3ccc(-c4ccc(Br)cc4)cc3)C(O)C(C)O2)Oc2ccc(cc2Cl)C1O (stereo not drawn) [Compound 230, 4-[4-bromophenyl]benzyl]
4 µg/mL (≈ 2.3 µM)	≤ 0.06 µg/mL	≤ 0.06 µg/mL	CNC(CC(C)C)C(=O)NC1C(=O)NC(CC(N)=O)C(=O)NC2C(=O)NC3C(=O)NC(C(=O)NC(C(=O)O)c4cc(O)cc(O)c4-c4cc3ccc4O)C(OC3CC(C)(N)C(O)C(C)O3)c3ccc(c(Cl)c3)Oc3cc2cc(c3OC2OC(CO)C(O)C(O)C2OC2CC(C)(NCCCc3ccc(OC)cc3)C(O)C(C)O2)Oc2ccc(cc2Cl)C1O (stereo not drawn) [Compound 175, 3-[4-methoxyphenyl]propyl]
4 µg/mL (≈ 2.21 µM)	0.5 µg/mL (≈ 0.276 µM)	≤ 0.06 µg/mL	CNC(CC(C)C)C(=O)NC1C(=O)NC(CC(N)=O)C(=O)NC2C(=O)NC3C(=O)NC(C(=O)NC(C(=O)O)c4cc(O)cc(O)c4-c4cc3ccc4O)C(OC3CC(C)(N)C(O)C(C)O3)c3ccc(c(Cl)c3)Oc3cc2cc(c3OC2OC(CO)C(O)C(O)C2OC2CC(C)(NCc3cccc(OC(=O)C4CCCCC4)c3)C(O)C(C)O2)Oc2ccc(cc2Cl)C1O (stereo not drawn) [Compound 165, 3-cyclohexanoyloxybenzyl]
0.5 µg/mL (≈ 0.282 µM)	≤ 0.06 µg/mL	≤ 0.06 µg/mL	CNC(CC(C)C)C(=O)NC1C(=O)NC(CC(N)=O)C(=O)NC2C(=O)NC3C(=O)NC(C(=O)NC(C(=O)O)c4cc(O)cc(O)c4-c4cc3ccc4O)C(OC3CC(C)(N)C(O)C(C)O3)c3ccc(c(Cl)c3)Oc3cc2cc(c3OC2OC(CO)C(O)C(O)C2OC2CC(C)(NCc3ccc(-c4cccc(C)c4)cc3)C(O)C(C)O2)Oc2ccc(cc2Cl)C1O (stereo not drawn) [Compound 224, 4-[3-methylphenyl]benzyl]
4 µg/mL (≈ 2.22 µM)	≤ 0.06 µg/mL	≤ 0.06 µg/mL	CNC(CC(C)C)C(=O)NC1C(=O)NC(CC(N)=O)C(=O)NC2C(=O)NC3C(=O)NC(C(=O)NC(C(=O)O)c4cc(O)cc(O)c4-c4cc3ccc4O)C(OC3CC(C)(N)C(O)C(C)O3)c3ccc(c(Cl)c3)Oc3cc2cc(c3OC2OC(CO)C(O)C(O)C2OC2CC(C)(NCc3ccc(OCCOCCCl)cc3)C(O)C(C)O2)Oc2ccc(cc2Cl)C1O (stereo not drawn) [Compound 75]
8 µg/mL (≈ 4.38 µM)	4 µg/mL (≈ 2.19 µM)	4 µg/mL (≈ 2.19 µM)	CCCCCCCCCOc1ccc(CNC2(C)CC(OC3C(Oc4c5cc6cc4Oc4ccc(cc4Cl)C(OC4CC(C)(N)C(O)C(C)O4)C4NC(=O)C(NC(=O)C6NC(=O)C(CC(N)=O)NC(=O)C(NC(=O)C(CC(C)C)NC)C(O)c6ccc(c(Cl)c6)O5)c5ccc(O)c(c5)-c5c(O)cc(O)cc5C(C(=O)O)NC4=O)OC(CO)C(O)C3O)OC(C)C2O)cc1 (stereo not drawn) [Compound 8, 4-nonyloxybenzyl]
2 µg/mL (≈ 1.11 µM)	≤ 0.06 µg/mL	≤ 0.06 µg/mL	CNC(CC(C)C)C(=O)NC1C(=O)NC(CC(N)=O)C(=O)NC2C(=O)NC3C(=O)NC(C(=O)NC(C(=O)O)c4cc(O)cc(O)c4-c4cc3ccc4O)C(OC3CC(C)(N)C(O)C(C)O3)c3ccc(c(Cl)c3)Oc3cc2cc(c3OC2OC(CO)C(O)C(O)C2OC2CC(C)(NCc3cccc(OC(=O)c4ccccc4)c3)C(O)C(C)O2)Oc2ccc(cc2Cl)C1O (stereo not drawn) [Compound 162, 3-benzoyloxybenzyl]
2 µg/mL (≈ 1.09 µM)	0.5 µg/mL (≈ 0.274 µM)	≤ 0.06 µg/mL	CNC(CC(C)C)C(=O)NC1C(=O)NC(CC(N)=O)C(=O)NC2C(=O)NC3C(=O)NC(C(=O)NC(C(=O)O)c4cc(O)cc(O)c4-c4cc3ccc4O)C(OC3CC(C)(N)C(O)C(C)O3)c3ccc(c(Cl)c3)Oc3cc2cc(c3OC2OC(CO)C(O)C(O)C2OC2CC(C)(NCCCCCCCCOc3ccc(OC)cc3)C(O)C(C)O2)Oc2ccc(cc2Cl)C1O (stereo not drawn) [Compound 200, 8-[4-methoxyphenoxy]octyl]

SMILES	MIC [1]	MIC (Entercoccus faecalis 276)	MIC [2]
C=CCOc1ccc(CNC2(C)CC(OC3C(Oc4c5cc6cc4Oc4ccc(cc4Cl)C(OC4CC(C)(N)C(O)C(C)O4)C4NC(=O)C(NC(=O)C6NC(=O)C(CC(N)=O)NC(=O)C(NC(=O)C(CC(C)C)NC)C(O)c6ccc(c(Cl)c6)O5)c5ccc(O)c(c5)-c5c(O)cc(O)cc5C(C(=O)O)NC4=O)OC(CO)C(O)C3O)OC(C)C2O)cc1 (stereo not drawn) [Compound 7, 4-allyloxybenzyl]	0.5 µg/mL (≈ 0.288 µM)	1 µg/mL (≈ 0.575 µM)	0.125 µg/mL (≈ 0.0719 µM)
